Data on seven compounds can be found in ChEMBL document CHEMBL1138391, “Syntheses of hydroxy substituted 2-phenyl-naphthalenes as inhibitors of tyrosinase” (Bioorg Med Chem Lett, 2007).

Each structure is given as a SMILES string.

This test addresses T1, Tyrosinase (Agaricus bisporus, UniProt O42713).
T1 sequence (O42713 whole entry): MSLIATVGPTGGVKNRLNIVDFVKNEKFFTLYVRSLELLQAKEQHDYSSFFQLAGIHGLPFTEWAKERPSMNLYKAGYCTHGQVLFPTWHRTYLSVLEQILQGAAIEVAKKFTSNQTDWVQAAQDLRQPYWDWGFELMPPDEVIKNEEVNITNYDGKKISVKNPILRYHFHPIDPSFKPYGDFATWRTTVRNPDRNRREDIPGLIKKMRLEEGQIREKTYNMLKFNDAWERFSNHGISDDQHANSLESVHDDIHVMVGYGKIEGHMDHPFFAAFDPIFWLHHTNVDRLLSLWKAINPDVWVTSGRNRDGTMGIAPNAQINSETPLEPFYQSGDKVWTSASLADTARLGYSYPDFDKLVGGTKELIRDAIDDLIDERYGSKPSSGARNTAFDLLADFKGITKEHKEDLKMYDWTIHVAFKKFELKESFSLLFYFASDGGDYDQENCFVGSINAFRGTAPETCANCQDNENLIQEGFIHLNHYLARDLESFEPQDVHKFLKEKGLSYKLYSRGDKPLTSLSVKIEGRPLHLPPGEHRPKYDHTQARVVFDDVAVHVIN
Description: Inhibition of mushroom tyrosinase
As usually defined, the IC50 is the midpoint of a concentration-inhibition curve. As to `Oc1ccc(O)cc1` [HYDROQUINONE], half-maximal inhibition (IC50) was put at 33.5 µM. That is a double-digit micromolar value.

In turn, `Oc1ccc(/C=C/c2cc(O)cc(O)c2)cc1` [RESVERATROL] returned an IC50 of 55.6 µM. This IC50 is about 1.7-fold higher than that of the compound before. To `Oc1ccc(-c2ccc3cc(O)ccc3c2)c(O)c1` belongs 0.034 µM; to `Oc1cc(O)cc(-c2ccc3cc(O)ccc3c2)c1`, 16.5 µM; to `Oc1cc(O)cc(-c2ccc3cc(O)cc(O)c3c2)c1`, 0.49 µM. To `Oc1cccc(-c2ccc3cc(O)ccc3c2)c1` belongs 6.4 µM; to `Oc1ccc2cc(-c3cc(O)c(O)c(O)c3)ccc2c1`, 2.95 µM.
